Results as given in US7872018B2, “Compounds and methods for kinase modulation, and indications therefor” (Plexxikon, Inc., priority 2006, dated 2011).

Experiments:
[1] = molecular target: T1, Kit (Homo sapiens, UniProt P10721); test: c-kit biochemical assay (AlphaScreen or 33P-ATP); conditions: under the test conditions employed; read-out: IC50 toward kinase Kit
T1 construct: P1332.N6 BI PTP KIT M552-K948-X COD; made in house; host or cells: E. coli BL21(DE3)RIL, co-expressed with PTP1B
How it was run: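 Kinase activity read by AlphaScreen or 33P-ATP incorporation, with c-kit enzyme at 1 ng per sample. The enzyme was either commercial or a recombinant human kit construct made from a gene-synthesized coding sequence.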

[2] = molecular target: B-Raf V600E (Homo sapiens, UniProt P15056, V600E); test: B-Raf V600E kinase activity assay; assay type: biochemical; conditions: under the test conditions employed; read-out: IC50 toward kinase B-Raf V600E
[3] = molecular target: Flt1 (Homo sapiens, UniProt P17948); test: Flt1 kinase activity assay; assay type: biochemical; conditions: under the test conditions employed; read-out: IC50 toward kinase Flt1
Chain of Flt1 (P17948 27-1338): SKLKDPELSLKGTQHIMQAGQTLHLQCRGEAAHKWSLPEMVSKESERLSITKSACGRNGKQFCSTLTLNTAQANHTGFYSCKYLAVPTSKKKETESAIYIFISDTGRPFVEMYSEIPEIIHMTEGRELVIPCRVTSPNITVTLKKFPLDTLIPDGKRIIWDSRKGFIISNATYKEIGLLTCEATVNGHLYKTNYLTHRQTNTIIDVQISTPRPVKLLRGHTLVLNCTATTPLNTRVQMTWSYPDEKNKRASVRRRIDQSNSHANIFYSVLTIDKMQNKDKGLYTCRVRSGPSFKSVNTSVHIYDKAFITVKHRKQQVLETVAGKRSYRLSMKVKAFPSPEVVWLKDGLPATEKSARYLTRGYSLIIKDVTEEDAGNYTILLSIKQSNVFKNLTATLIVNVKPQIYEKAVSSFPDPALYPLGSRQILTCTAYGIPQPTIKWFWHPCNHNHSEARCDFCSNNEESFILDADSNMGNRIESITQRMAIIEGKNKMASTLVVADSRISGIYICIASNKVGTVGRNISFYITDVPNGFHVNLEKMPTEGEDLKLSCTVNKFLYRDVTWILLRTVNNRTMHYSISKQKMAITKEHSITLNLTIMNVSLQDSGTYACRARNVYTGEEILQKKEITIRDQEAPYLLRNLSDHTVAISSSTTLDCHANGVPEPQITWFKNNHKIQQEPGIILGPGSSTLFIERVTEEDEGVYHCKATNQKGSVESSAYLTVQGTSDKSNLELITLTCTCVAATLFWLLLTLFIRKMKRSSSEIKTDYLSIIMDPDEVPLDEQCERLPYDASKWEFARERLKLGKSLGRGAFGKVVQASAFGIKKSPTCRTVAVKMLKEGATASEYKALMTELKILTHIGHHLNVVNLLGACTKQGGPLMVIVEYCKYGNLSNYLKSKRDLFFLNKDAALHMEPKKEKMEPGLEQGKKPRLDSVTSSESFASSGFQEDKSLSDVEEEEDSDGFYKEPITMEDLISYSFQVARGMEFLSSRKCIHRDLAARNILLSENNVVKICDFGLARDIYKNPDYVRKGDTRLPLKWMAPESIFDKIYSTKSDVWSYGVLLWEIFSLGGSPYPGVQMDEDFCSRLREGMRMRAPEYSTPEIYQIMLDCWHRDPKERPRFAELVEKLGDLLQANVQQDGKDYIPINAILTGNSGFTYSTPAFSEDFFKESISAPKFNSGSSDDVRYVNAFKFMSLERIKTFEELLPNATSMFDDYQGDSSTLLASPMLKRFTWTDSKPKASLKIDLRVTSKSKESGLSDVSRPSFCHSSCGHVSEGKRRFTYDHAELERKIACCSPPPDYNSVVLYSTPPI

[4] = molecular target: T2, Fms (Homo sapiens, UniProt P07333); test: Fms biochemical assay (AlphaScreen or 33P-ATP); conditions: under the test conditions employed; read-out: IC50 toward kinase Fms
T2 construct: purchased Upstate Biotech 14-551
From the text: Each sample was at 5% DMSO.

[5] = molecular target: B-Raf (Homo sapiens, UniProt P15056); test: B-Raf kinase activity assay; assay type: biochemical; conditions: under the test conditions employed; read-out: IC50 toward kinase B-Raf
[6] = molecular target: FGFR (Homo sapiens, UniProt P11362); test: FGFR kinase activity assay; assay type: biochemical; conditions: under the test conditions employed; read-out: IC50 toward kinase FGFR
Chain of FGFR (P11362 22-822): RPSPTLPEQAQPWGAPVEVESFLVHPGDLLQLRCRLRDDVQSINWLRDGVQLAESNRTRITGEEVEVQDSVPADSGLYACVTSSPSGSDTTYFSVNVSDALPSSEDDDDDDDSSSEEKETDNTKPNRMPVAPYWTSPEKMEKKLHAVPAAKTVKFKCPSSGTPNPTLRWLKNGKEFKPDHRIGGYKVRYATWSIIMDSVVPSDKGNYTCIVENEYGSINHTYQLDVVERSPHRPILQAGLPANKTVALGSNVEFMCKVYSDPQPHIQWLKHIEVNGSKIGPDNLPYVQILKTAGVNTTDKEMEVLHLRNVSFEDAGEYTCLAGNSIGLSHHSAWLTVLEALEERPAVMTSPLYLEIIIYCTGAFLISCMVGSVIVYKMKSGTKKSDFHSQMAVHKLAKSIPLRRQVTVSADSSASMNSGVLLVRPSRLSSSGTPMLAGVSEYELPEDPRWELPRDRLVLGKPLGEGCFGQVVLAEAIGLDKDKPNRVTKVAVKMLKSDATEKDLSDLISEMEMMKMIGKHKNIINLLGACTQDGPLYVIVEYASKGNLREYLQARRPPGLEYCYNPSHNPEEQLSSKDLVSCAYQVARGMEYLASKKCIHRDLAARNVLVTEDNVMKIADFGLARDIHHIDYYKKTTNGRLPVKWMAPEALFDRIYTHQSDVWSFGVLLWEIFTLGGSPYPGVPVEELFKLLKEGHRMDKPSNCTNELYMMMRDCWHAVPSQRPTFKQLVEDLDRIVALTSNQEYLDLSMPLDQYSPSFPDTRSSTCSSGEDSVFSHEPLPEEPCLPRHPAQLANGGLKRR

[7] = molecular target: HGK (Homo sapiens, UniProt O95819); test: HGK (MAP4K4) biochemical assay (AlphaScreen); conditions: under the test conditions employed; read-out: IC50 toward kinase HGK
Chain of HGK (O95819 whole entry): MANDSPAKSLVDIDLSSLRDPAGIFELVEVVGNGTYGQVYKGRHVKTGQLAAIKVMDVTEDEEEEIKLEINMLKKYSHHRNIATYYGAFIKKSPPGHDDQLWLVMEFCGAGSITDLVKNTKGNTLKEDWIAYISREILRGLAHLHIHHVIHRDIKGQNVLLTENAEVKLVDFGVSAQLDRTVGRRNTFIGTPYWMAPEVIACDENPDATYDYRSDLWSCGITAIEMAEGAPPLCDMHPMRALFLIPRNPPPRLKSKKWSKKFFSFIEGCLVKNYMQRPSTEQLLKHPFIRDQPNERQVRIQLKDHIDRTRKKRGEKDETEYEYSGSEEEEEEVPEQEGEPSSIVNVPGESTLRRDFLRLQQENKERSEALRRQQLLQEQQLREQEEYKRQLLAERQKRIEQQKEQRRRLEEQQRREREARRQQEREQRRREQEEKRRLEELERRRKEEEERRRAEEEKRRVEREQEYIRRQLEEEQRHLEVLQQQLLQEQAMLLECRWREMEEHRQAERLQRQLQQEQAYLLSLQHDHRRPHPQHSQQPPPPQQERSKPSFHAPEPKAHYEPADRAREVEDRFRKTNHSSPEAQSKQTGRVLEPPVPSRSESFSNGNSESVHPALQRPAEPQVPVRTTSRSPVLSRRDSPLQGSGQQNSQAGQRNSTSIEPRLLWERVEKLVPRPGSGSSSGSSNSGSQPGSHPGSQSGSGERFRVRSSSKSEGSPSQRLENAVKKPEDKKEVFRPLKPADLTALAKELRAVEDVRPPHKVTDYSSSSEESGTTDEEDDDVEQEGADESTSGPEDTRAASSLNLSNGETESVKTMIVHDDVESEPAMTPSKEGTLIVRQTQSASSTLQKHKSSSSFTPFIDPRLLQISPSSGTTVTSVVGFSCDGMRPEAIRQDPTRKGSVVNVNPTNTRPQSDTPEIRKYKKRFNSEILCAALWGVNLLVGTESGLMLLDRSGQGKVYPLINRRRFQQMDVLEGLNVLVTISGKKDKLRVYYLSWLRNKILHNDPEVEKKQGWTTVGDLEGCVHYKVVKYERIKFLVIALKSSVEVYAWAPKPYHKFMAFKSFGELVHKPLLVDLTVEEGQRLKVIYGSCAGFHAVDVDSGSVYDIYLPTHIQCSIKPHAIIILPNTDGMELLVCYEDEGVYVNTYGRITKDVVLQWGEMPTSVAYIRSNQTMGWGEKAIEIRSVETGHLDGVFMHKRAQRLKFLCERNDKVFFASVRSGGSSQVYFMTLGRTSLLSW
How it was run: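 AlphaScreen kinase assay with 0.5 ng MAP4K4 per sample and 10 nM biotin-ERM substrate, reacted 40 min at room temperature. Stopped with EDTA buffer containing phospho-ERM antibody (1:1000) plus donor and protein A acceptor beads (1 μg/ml final); signal tracks substrate phosphorylation.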

[8] = molecular target: Kdr (Homo sapiens, UniProt P35968); test: Kdr kinase activity assay; assay type: biochemical; conditions: under the test conditions employed; read-out: IC50 toward kinase Kdr
[9] = molecular target: T3, TrkA (Homo sapiens, UniProt P04629); test: TrkA biochemical assay (AlphaScreen); conditions: under the test conditions employed; read-out: IC50 toward kinase TrkA
T3 construct: purchased Upstate Biotech 14-571
T3 sequence (P04629 33-796): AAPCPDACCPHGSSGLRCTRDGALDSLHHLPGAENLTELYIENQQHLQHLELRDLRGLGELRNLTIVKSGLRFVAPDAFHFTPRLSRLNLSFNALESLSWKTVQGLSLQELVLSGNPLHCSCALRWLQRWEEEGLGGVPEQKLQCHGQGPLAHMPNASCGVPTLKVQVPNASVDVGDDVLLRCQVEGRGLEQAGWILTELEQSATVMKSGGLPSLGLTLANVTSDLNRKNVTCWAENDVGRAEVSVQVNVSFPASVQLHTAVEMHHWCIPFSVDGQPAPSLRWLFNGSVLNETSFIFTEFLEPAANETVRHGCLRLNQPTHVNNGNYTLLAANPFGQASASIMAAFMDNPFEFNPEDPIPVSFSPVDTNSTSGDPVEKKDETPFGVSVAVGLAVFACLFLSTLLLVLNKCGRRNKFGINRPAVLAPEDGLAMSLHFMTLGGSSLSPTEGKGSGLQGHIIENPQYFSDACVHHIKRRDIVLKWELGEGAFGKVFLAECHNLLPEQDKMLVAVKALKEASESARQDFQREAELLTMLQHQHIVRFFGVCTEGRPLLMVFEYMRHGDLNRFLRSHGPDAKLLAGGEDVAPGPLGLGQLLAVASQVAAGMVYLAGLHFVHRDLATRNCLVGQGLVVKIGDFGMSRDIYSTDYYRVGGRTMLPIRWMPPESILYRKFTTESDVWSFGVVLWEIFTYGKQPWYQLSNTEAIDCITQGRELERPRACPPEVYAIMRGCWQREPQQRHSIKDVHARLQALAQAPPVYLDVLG
Description: Compounds tested were dissolved in DMSO (1 μL) and added to a white 384-well plate (Costar #3705). […] Each sample was at 5% DMSO. The plate was then incubated for 40 minutes at room temperature.

[10] = molecular target: Btk (Homo sapiens, UniProt Q06187); test: Btk kinase activity assay; assay type: biochemical; conditions: under the test conditions employed; read-out: IC50 toward kinase Btk

Measured: IC50

T1 sequence (P10721 552-948): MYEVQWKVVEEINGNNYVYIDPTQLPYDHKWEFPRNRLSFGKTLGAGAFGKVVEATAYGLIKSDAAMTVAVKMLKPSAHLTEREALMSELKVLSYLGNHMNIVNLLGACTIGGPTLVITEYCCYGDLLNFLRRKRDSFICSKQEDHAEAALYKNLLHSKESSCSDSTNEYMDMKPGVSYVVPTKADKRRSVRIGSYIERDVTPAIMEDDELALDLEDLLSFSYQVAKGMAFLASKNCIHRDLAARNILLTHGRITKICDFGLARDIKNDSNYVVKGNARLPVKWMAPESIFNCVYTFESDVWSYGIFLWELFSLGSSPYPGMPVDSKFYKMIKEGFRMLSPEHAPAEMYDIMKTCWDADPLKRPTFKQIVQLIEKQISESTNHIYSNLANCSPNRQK

Clc1ccc(COc2ccc(Cc3c[nH]c4ncccc34)cc2)cc1 [P-1462, 3-[4-(4-Chloro-benzyloxy)-benzyl]-1H-pyrrolo[2,3-b]pyridine]
≤ 10 µM: [1] | [2] | [3] | [4]

O=C(c1c(F)ccc(OCc2ccccc2)c1F)c1c[nH]c2ncc(-c3cccnc3)cc12 [P-1467, (3-Benzyloxy-2,6-difluorophenyl)-(5-pyridin-3-yl-1H-pyrrolo[2,3-b]pyridin-3-yl)-methanone]
≤ 10 µM: [1] | [2] | [3] | [5] | [6] | [4]

COc1cnc2[nH]cc(Cc3ccc(OCc4ccc(Cl)cc4)c(OC)c3)c2c1 [P-1531, 3-[4-(4-Chloro-benzyloxy)-3-methoxy-benzyl]-5-methoxy-1H-pyrrolo[2,3-b]pyridine]
≤ 10 µM: [1] | [2] | [3]

COc1cc(Cc2c[nH]c3ncc(Cl)cc23)ccc1OCc1ccc(Cl)cc1 [P-1532, 5-Chloro-3-[4-(4-chloro-benzyloxy)-3-methoxy-benzyl]-1H-pyrrolo[2,3-b]pyridine]
≤ 10 µM: [1] | [2] | [3] | [5] | [4]

COc1cc(Cc2c[nH]c3ncccc23)ccc1OCc1ccc(Cl)cc1F [P-1544, 3-[4-(4-Chloro-2-fluoro-benzyloxy)-3-methoxy-benzyl]-1H-pyrrolo[2,3-b]pyridine]
≤ 10 µM: [1] | [2] | [3] | [5] | [4]

COc1cc(Cc2c[nH]c3ncccc23)ccc1OCc1ccc(Cl)cc1Cl [P-1568, 3-[4-(2,4-Dichloro-benzyloxy)-3-methoxy-benzyl]-1H-pyrrolo[2,3-b]pyridine]
≤ 10 µM: [1] | [2] | [5] | [4]

COc1ccc(COc2ccc(Cc3c[nH]c4ncccc34)cc2OC)cc1 [P-1569, 3-[3-Methoxy-4-(4-methoxy-benzyloxy)-benzyl]-1H-pyrrolo[2,3-b]pyridine]
≤ 10 µM: [1] | [2] | [3] | [5] | [4]

COCCOc1ccc(F)c(C(=O)c2c[nH]c3ncc(OC)cc23)c1F [P-1584, [2,6-Difluoro-3-(2-methoxy-ethoxy)-phenyl]-(5-methoxy-1H-pyrrolo[2,3-b]pyridin-3-yl)-methanone]
≤ 10 µM: [2] | [3] | [5] | [6]

COc1cnc2[nH]cc(C(=O)c3c(F)ccc(OCc4ccccc4)c3F)c2c1 [P-1597, (3-Benzyloxy-2,6-difluoro-phenyl)-(5-methoxy-1H-pyrrolo[2,3-b]pyridin-3-yl)-methanone]
≤ 10 µM: [2] | [3] | [5] | [6] | [4]

COc1cc(Cc2c[nH]c3ncccc23)ccc1OCc1ccccc1 [P-1613, 3-(4-benzyloxy-3-methoxy-benzyl)-1H-pyrrolo[2,3-b]pyridine]
≤ 10 µM: [2] | [3] | [5] | [4]

O=C(c1c(F)ccc(OCc2ccccc2)c1F)c1c[nH]c2ncccc12 [P-1802, (3-Benzyloxy-2,6-difluoro-phenyl)-(1H-pyrrolo[2,3-b]pyridin-3-yl)-methanone]
≤ 10 µM: [2] | [5] | [4]

Fc1cc(OCc2nc3ccccc3[nH]2)c(F)cc1Cc1c[nH]c2ncc(Cl)cc12 [P-2100, 2-[4-(5-Chloro-1H-pyrrolo[2,3-b]pyridin-3-ylmethyl)-2,5-difluoro-phenoxymethyl]-1H-benzoimidazole]
not listed: [3] | [6] | [10]
≤ 10 µM: all other assays above

COc1cnc2[nH]cc(Cc3cc(F)c(OCc4nc5ccccc5[nH]4)cc3F)c2c1 [P-2101, 2-[2,5-Difluoro-4-(5-methoxy-1H-pyrrolo[2,3-b]pyridin-3-ylmethyl)-phenoxymethyl]-1H-benzoimidazole]
≤ 10 µM: [1] | [3] | [7] | [8] | [9] | [4]

Cc1nc(C)c(COc2cccc(C(=O)c3c[nH]c4ncc(Cl)cc34)c2OCC2CC2)s1 [P-2140, (5-Chloro-1H-pyrrolo[2,3-b]pyridin-3-yl)-[2-cyclopropylmethoxy-3-(2,4-dimethyl-thiazol-5-ylmethoxy)-phenyl]-methanone]
≤ 10 µM: [1] | [10] | [4]

Cn1cc(-c2cnc3[nH]cc(Cc4c(F)ccc(OCC(F)(F)F)c4Cl)c3c2)cn1 [P-2146, 3-[2-Chloro-6-fluoro-3-(2,2,2-trifluoro-ethoxy)-benzyl]-5-(1-methyl-1H-pyrazol-4-yl)-1H-pyrrolo[2,3-b]pyridine]
≤ 10 µM: [1] | [3] | [7] | [8] | [9] | [4]

COc1cnc2[nH]cc(C(=O)c3c(F)ccc(OCC(F)(F)F)c3Cl)c2c1 [P-2149, [2-Chloro-6-fluoro-3-(2,2,2-trifluoro-ethoxy)-phenyl]-(5-methoxy-1H-pyrrolo[2,3-b]pyridin-3-yl)-methanone]
≤ 10 µM: [1] | [3] | [7] | [8] | [4]

COCCOc1ccc(F)c(C(=O)c2c[nH]c3ncc(Cl)cc23)c1Cl [P-2159, [2-Chloro-6-fluoro-3-(2-methoxy-ethoxy)-phenyl]-(5-chloro-1H-pyrrolo[2,3-b]pyridin-3-yl)-methanone]
≤ 10 µM: [1] | [8] | [6] | [4]

COCCOc1ccc(F)c(C(=O)c2c[nH]c3ncccc23)c1Cl [P-2160, [2-Chloro-6-fluoro-3-(2-methoxy-ethoxy)-phenyl]-(1H-pyrrolo[2,3-b]pyridin-3-yl)-methanone]
≤ 10 µM: [1] | [8] | [6] | [4]

Cn1ccnc1COc1ccc(F)c(C(=O)c2c[nH]c3ncc(Cl)cc23)c1F [P-2165, (5-Chloro-1H-pyrrolo[2,3-b]pyridin-3-yl)-[2,6-difluoro-3-(1-methyl-1H-imidazol-2-ylmethoxy)-phenyl]-methanone]
≤ 10 µM: [1] | [2] | [3] | [8] | [5] | [4]

CS(=O)(=O)c1cnc2[nH]cc(Cc3cc(F)c(OCc4nc5ccccc5[nH]4)cc3F)c2c1 [P-2170, 2-[2,5-Difluoro-4-(5-methanesulfonyl-1H-pyrrolo[2,3-b]pyridin-3-ylmethyl)-phenoxymethyl]-1H-benzoimidazole]
≤ 10 µM: [3] | [7] | [5] | [9] | [4]

COc1cc(Cc2c[nH]c3ncc(S(C)(=O)=O)cc23)c(F)cc1OCc1nc2ccccc2[nH]1 [P-2186, 2-[5-Fluoro-4-(5-methanesulfonyl-1H-pyrrolo[2,3-b]pyridin-3-ylmethyl)-2-methoxy-phenoxymethyl]-1H-benzoimidazole]
≤ 10 µM: [2] | [7] | [5] | [9] | [4]
